What was measured:
Assay type in all cases: in vivo
[1] = tested on: adult brown dog ticks (Rhipicephalus sanguineus); experiment: Rhipicephalus sanguineus in-vitro contact test, adult brown dog ticks; details: application rate 5 μg/cm^2 (=500 g/ha), after 48 hours, read-out: activity (efficacy: ticks dead or moribund)
Method: Rhipicephalus sanguineus—In-Vitro Contact Tests with Adult Brown Dog Ticks
9 mg compound is solved in 1 mL acetone and diluted with acetone to the desired concentration. 250 μL of the test solution is filled in 25 mL glass test tubes and homogeneously distributed on the inner walls by rotation and tilting on a shaking device (2 h at 30 rpm). With a compound concentration of 900 ppm, an inner surface of 44.7 cm^2 and a homogeneous distribution, a dose of 5 μg/cm^2 is achieved.
After the solvent has evaporated, each test tube is filled with 5-10 adult brown dog ticks (Rhipicephalus sanguineus), closed with a perforated lid and incubated in a lying position at room temperature and relative humidity. After 48 hours efficacy is determined. The ticks are patted on the ground of the tubes and are incubated on a heating plate at 45-50° C. for at most 5 minutes. Immotile or uncoordinated moving ticks, which are not able to escape the heat by climbing upwards, are marked as dead or moribund.
An efficacy of 100% means all ticks are dead or moribund; 0% means no ticks are dead or moribund.

[2] = tested on: adult flies Musca domestica strain WHO-N; experiment: Musca domestica test (MUSCDO surface treatment & contact assay); details: surface concentration 20 mg/m^2, exposure 30 minutes, 24 hours after contact, read-out: efficacy (mortality)
Method: Musca domestica Test (MUSCDO Surface Treatment & Contact Assay)
(§1) Solvent: Aceton+2000 ppm rapeseed oil methyl ester (RME)
(§2) In order to produce a sufficient, active ingredient containing solution it is necessary to solve the test compound in the solvent-mix (acetone at 2 mg/ml/RME 2000 ppm). This solution is pipetted onto a glazed tile and after evaporation of the acetone, adult flies of the species Musca domestica strain WHO-N are placed onto the dried surface. The exposure time is 30 minutes.
(§3) Mortality in percent (%) is determined 24 hours after contact of the insects to the treated surface. 100% mortality means that all tested insects are dead, whereas 0% means that no insect died.

[3] = tested on: larvae of the southern green stink bug (Nezara viridula); experiment: Nezara viridula spray test; details: 96 h, after 4 days, barley plants; for mortality at 500 g/ha: application rate 500 g/ha, read-out: activity (mortality); for mortality at 100 g/ha: application rate 100 g/ha
Method: Nezara viridula—Spray Test
(§4) To produce a suitable preparation of active compound, 1 part by weight of active compound is mixed with the stated amount of solvent, and the concentrate is diluted with water, containing an emulsifier concentration of 1000 ppm, to the desired concentration. Further test concentrations are prepared by dilution with emulsifier containing water.
Barley plants (Hordeum vulgare) are sprayed with a test solution containing the desired concentration of the active ingredient and are infested with larvae of the southern green stink bug (Nezara viridula).
After 4 days mortality in % is determined. 100% means all the stink bugs have been killed; 0% means none of the stink bugs have been killed.

[4] = tested on: Rhipicephalus (Boophilus) microplus larvae (strain Parkhurst, resistant against synthetic pyrethroids); experiment: Rhipicephalus (Boophilus) microplus in-vitro contact test, larval cattle tick; details: after 48 hours, read-out: activity (efficacy: larvae dead or moribund); for pest or weed control at 1 µg/cm2, 100 g/ha: application rate 1 μg/cm^2 (=100 g/ha); for pest or weed control at 5 µg/cm2, 500 g/ha: application rate 5 μg/cm^2 (=500 g/ha)
Outline: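 Acetone solutions were coated onto glass tube walls, giving 5 μg/cm^2 at 900 ppm. Once dry, 20–50 pyrethroid-resistant Parkhurst larvae were added per tube and held 48 h at 27 °C and 85% RH. Efficacy was scored by negative geotaxis as the percentage of dead or moribund larvae.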

[5] = tested on: fall armyworm larvae (Spodoptera frugiperda); experiment: Spodoptera frugiperda spray test; details: 168 h, application rate 100 g/ha, after 7 days, maize leaf sections
Outline: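 Caterpillars are placed on sprayed, dried maize leaf sections. Sprays contain compound diluted in water with emulsifier at 1000 ppm; mortality in % is determined 7 days later.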

[6] = tested on: larvae of the banded cucumber beetle (Diabrotica balteata); experiment: Diabrotica balteata spray test; details: 168 h, application rate 100 g/ha (=32 μg/well), after 7 days, wheat seeds, read-out: activity (efficacy: seedlings grown)
Outline: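 Wheat seeds germinated 1 day on agar were sprayed with compound diluted in water with 1000 ppm emulsifier, then infested with 10-20 Diabrotica balteata larvae. Efficacy in % scored after 7 days: 100% = seedlings grown as untreated, uninfected control; 0% = no seedlings grown.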

[7] = tested on: adult cat fleas (Ctenocephalides felis); experiment: Ctenocephalides felis in-vitro contact test, adult cat flea; details: application rate 5 μg/cm^2 (=500 g/ha), after 48 hours, read-out: activity (efficacy: fleas dead or moribund)
Outline: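 Acetone solutions of compound were coated onto inner walls of glass tubes (900 ppm giving 5 μg/cm^2) and dried; 5-10 adult C. felis were then held 48 h at room temperature. Efficacy = % fleas dead or moribund, judged by inability to escape a 45-50° C heating plate within 5 min.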

[8] = tested on: green peach aphid (Myzus persicae); experiment: Myzus persicae oral test; details: 120 h, read-out: activity (mortality)
Outline: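 Oral uptake format: water-diluted acetone concentrate of compound is blended into IPL41 medium carrying 33%+15% sugar and offered under a parafilm membrane. Percentage of dead insects is recorded after 5 days.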

[9] = tested on: adult mosquitoes Aedes aegypti strain MONHEIM; experiment: Aedes aegypti test (AEDSAE surface treatment & contact assay); details: surface concentration 20 mg/m^2, exposure 30 minutes, 24 hours after contact, read-out: efficacy (mortality)
Method: Aedes aegypti Test (AEDSAE Surface Treatment & Contact Assay)
as §1
as §2, with “mosquitoes” for “flies”, “Aedes aegypti” for “Musca domestica”, “MONHEIM” for “WHO-N”
as §3

[10] = tested on: green peach aphid (Myzus persicae); experiment: Myzus persicae spray test; details: foliar, 120 h, after 5 days, Chinese cabbage leaf disks; for mortality at 500 g/ha: application rate 500 g/ha; for mortality at 100 g/ha: application rate 100 g/ha, read-out: activity (mortality)
Method: Myzus persicae—Spray Test
as §4, with “solvents” for “solvent,”, “and” for “and the concentrate”
Chinese cabbage (Brassica pekinensis) leaf disks infected with all instars of the green peach aphid (Myzus persicae), are sprayed with a preparation of the active ingredient of the desired concentration.
After 5 days mortality in % is determined. 100% means all aphids have been killed and 0% means none of the aphids have been killed.

[11] = tested on: adult engorged female ticks (Rhipicephalus microplus); experiment: Rhipicephalus (Boophilus) microplus injection test; details: 168 h, application rate 4 μg/tick, egg deposition after 7 days, read-out: activity (efficacy: infertile eggs)
Method: Rhipicephalus (Boophilus) microplus—Injection Test
Solvent: dimethyl sulfoxide
To produce a suitable preparation of active compound, 10 mg of active compound are dissolved in 0.5 mL solvent, and the concentrate is diluted with solvent to the desired concentration.
Five adult engorged female ticks (Rhipicephalus microplus) are injected with 1 μL compound solution into the abdomen. The ticks are transferred into replica plates and incubated in a climate chamber.
After 7 days egg deposition of fertile eggs is monitored. Eggs where fertility is not visible are stored in a climate chamber till hatching after about 42 days. An efficacy of 100% means all eggs are infertile; 0% means all eggs are fertile.

SMILES	pest or weed control at 5 µg/cm2, 500 g/ha [1] [%]	mortality at 20 mg/m2 [2] [%]	mortality at 500 g/ha [3] [%]	pest or weed control at 1 µg/cm2, 100 g/ha [4] [%]	pest or weed control at 5 µg/cm2, 500 g/ha [4] [%]	mortality at 100 g/ha [5] [%]	pest or weed control at 32 µg/disc, 100 g/ha [6] [%]	pest or weed control at 5 µg/cm2 [7] [%]	mortality at 4 ppm [8] [%]	mortality at 20 mg/m2 [9] [%]	mortality at 500 g/ha [10] [%]	mortality at 100 g/ha [3] [%]	mortality at 100 g/ha [10] [%]	pest or weed control at 0.004 mg [11] [%]
C[C@@H]1CN(C(=O)c2ccc(-n3nc(C4CC4)nc3[C@H](C)NC(=O)c3cc(C(F)(F)F)cc(C(F)(F)F)c3)nc2)C[C@H](C)O1 [Example I-89]	100	80 to 100	100	100	100	100	100	100						
C[C@H](NC(=O)c1cc(C(F)(F)F)cc(C(F)(F)F)c1)c1ncnn1-c1ccc(C(=O)NC2CCOC2)cn1 (stereo partly shown) [Example I-61]			100	90	90	100			100	80 to 100	90			
Cc1nc([C@H](C)NC(=O)c2cc(C(F)(F)F)cc(C(F)(F)F)c2)n(-c2ccc(C(=O)N3CCOC[C@@H]3C)cn2)n1 [Example I-68]				100	100	100	100	100		80 to 100				
Cc1nc([C@H](C)NC(=O)c2cc(C(F)(F)F)cc(C(F)(F)F)c2)n(-c2ccc(C(=O)N3CCOC[C@H]3C)cn2)n1 [Example I-72]	100	80 to 100		100	100	100	100	100						
C[C@H](NC(=O)c1cc(C(F)(F)F)cc(C(F)(F)F)c1)c1ncnn1-c1ccc(C(=O)N2CCOC(C)(C)C2)cn1 [Example I-14, N-[(1S)-1-(1-{5-[(2,2-dimethylmorpholin-4-yl)carbonyl]pyridin-2-yl}-1H-1,2,4-triazol-5-yl)ethyl]-3,5-bis(trifluoromethyl)benzamide]	100			100	100	83	100	100	100			100	90	100
C[C@@H]1CN(C(=O)c2cnc(-n3ncnc3[C@H](C)NC(=O)c3cc(C(F)(F)F)cc(C(F)(F)F)c3)cn2)C[C@H](C)O1 [Example I-143]			100			100	100						90	
C[C@H](NC(=O)c1cc(C(F)(F)F)cc(C(F)(F)F)c1)c1ncnn1-c1ccc(C(=O)NC2CS(=O)(=O)C2)cn1 [Example I-63]				90	90		100	100	100	80 to 100	90		90	
C[C@H](NC(=O)c1cc(C(F)(F)F)cc(C(F)(F)F)c1)c1ncnn1-c1ccc(C(=O)N2CCOC[C@@H]2C)cn1 [Example I-67]		80 to 100		100	100	100	100	100	100	80 to 100				
C[C@H](NC(=O)c1cc(C(F)(F)F)cc(C(F)(F)F)c1)c1ncnn1-c1ccc(C(=O)N(C)C2COC2)cn1 [Example I-112]		80 to 100		100	100	100		90	70	80 to 100		100	100	
C[C@H](NC(=O)c1cc(C(F)(F)F)cc(C(F)(F)F)c1)c1ncnn1-c1ccc(C(=O)N2CC3(COC3)C2)cn1 [Example I-12]	100			100	100	100		90	100	80 to 100				100
CON(C)C(=O)c1ccc(-n2ncnc2[C@H](C)NC(=O)c2cc(C(F)(F)F)cc(C(F)(F)F)c2)nc1 [Example I-48]				100	100	100	100		100	80 to 100				
CON(C)C(=O)c1ccc(-n2nc(C)nc2[C@H](C)NC(=O)c2cc(C(F)(F)F)cc(C(F)(F)F)c2)nc1 [Example I-49]				100	100	100	100		100	80 to 100			90	
